According to PubChem BioAssay AID1259407 (Chemical Carcinogenesis Research Information System (CCRIS), 2018):
Active and inactive are the calls of the source. How the calls were made is not given here.

Test system: CCRIS mutagenicity, Ames/micronucleus/aberration tests
Experiment: CCRIS mutagenicity studies
[1] = Test System: AMES SALMONELLA TYPHIMURIUM, Strain/Indicator: TA98, Metabolic Activation: NONE, Method: STANDARD PLATE
[2] = Test System: AMES SALMONELLA TYPHIMURIUM, Strain/Indicator: TA100, Metabolic Activation: NONE, Method: STANDARD PLATE
[3] = Test System: AMES SALMONELLA TYPHIMURIUM, Strain/Indicator: TA98, Metabolic Activation: NONE, Method: PREINCUBATION
[4] = Test System: AMES SALMONELLA TYPHIMURIUM, Strain/Indicator: TA100, Metabolic Activation: NONE, Method: PREINCUBATION
[5] = Test System: AMES SALMONELLA TYPHIMURIUM, Strain/Indicator: TA1535, Metabolic Activation: NONE, Method: PREINCUBATION
[6] = Test System: AMES SALMONELLA TYPHIMURIUM, Strain/Indicator: TA1537, Metabolic Activation: NONE, Method: PREINCUBATION

Measured: mutagenic call

Cc1cccc2c1c([N+](=O)[O-])cc[n+]2[O-]
active: Test System: UDS RODENT PRIMARY CELLS, Strain/Indicator: THY INCORP (NON-S-PHASE), Metabolic Activation: NONE, Method: AUTORADIOGRAPHY active; positive

O=C(/C=C/c1cccc([N+](=O)[O-])c1)c1ccccc1
inactive: [1] inactive; negative | Test System: AMES SALMONELLA TYPHIMURIUM, Strain/Indicator: TA98, Metabolic Activation: RAT, LIVER, S-9, AROCLOR 1254, Method: STANDARD PLATE inactive; negative | [2] inactive; negative | Test System: AMES SALMONELLA TYPHIMURIUM, Strain/Indicator: TA100, Metabolic Activation: RAT, LIVER, S-9, AROCLOR 1254, Method: STANDARD PLATE inactive; negative

CCCCCCCCOC(=O)c1ccccc1C(=O)OCCCCCCCC
inactive: Test System: AMES SALMONELLA TYPHIMURIUM, Strain/Indicator: TA98, Metabolic Activation: HAMSTER, LIVER, S-9, AROCLOR 1254 (10%), Method: PREINCUBATION inactive; negative | [3] inactive; negative | Test System: AMES SALMONELLA TYPHIMURIUM, Strain/Indicator: TA98, Metabolic Activation: RAT, LIVER, S-9, AROCLOR 1254 (10%), Method: PREINCUBATION inactive; negative | Test System: AMES SALMONELLA TYPHIMURIUM, Strain/Indicator: TA100, Metabolic Activation: HAMSTER, LIVER, S-9, AROCLOR 1254 (10%), Method: PREINCUBATION inactive; negative | [4] inactive; negative | Test System: AMES SALMONELLA TYPHIMURIUM, Strain/Indicator: TA100, Metabolic Activation: RAT, LIVER, S-9, AROCLOR 1254 (10%), Method: PREINCUBATION inactive; negative | Test System: AMES SALMONELLA TYPHIMURIUM, Strain/Indicator: TA1535, Metabolic Activation: HAMSTER, LIVER, S-9, AROCLOR 1254 (10%), Method: PREINCUBATION inactive; negative | [5] inactive; negative | Test System: AMES SALMONELLA TYPHIMURIUM, Strain/Indicator: TA1535, Metabolic Activation: RAT, LIVER, S-9, AROCLOR 1254 (10%), Method: PREINCUBATION inactive; negative | Test System: AMES SALMONELLA TYPHIMURIUM, Strain/Indicator: TA1537, Metabolic Activation: HAMSTER, LIVER, S-9, AROCLOR 1254 (10%), Method: PREINCUBATION inactive; negative | [6] inactive; negative | Test System: AMES SALMONELLA TYPHIMURIUM, Strain/Indicator: TA1537, Metabolic Activation: RAT, LIVER, S-9, AROCLOR 1254 (10%), Method: PREINCUBATION inactive; negative

Nn1c2ccccc2c2cnccc21
active: [6] active; positive
inactive: Test System: AMES SALMONELLA TYPHIMURIUM, Strain/Indicator: TA1537, Metabolic Activation: RAT, LIVER, S-9, PHENOBARBITAL, Method: PREINCUBATION inactive; negative

Nc1c([N+](=O)[O-])cccc1[N+](=O)[O-]
active: [3] active; positive | Test System: AMES SALMONELLA TYPHIMURIUM, Strain/Indicator: TA98, Metabolic Activation: RAT, LIVER, S-9, KANECHLOR 500, Method: PREINCUBATION active; positive | [4] active; positive | Test System: AMES SALMONELLA TYPHIMURIUM, Strain/Indicator: TA100, Metabolic Activation: RAT, LIVER, S-9, KANECHLOR 500, Method: PREINCUBATION active; positive

CCOC(=O)C(C)NC(=O)C=[N+]=[N-] (stereo not drawn)
active: Test System: UDS RODENT CELLS, Strain/Indicator: THY INCORP (NON-S-PHASE), Metabolic Activation: NONE, Method: AUTORADIOGRAPHY active; positive

ClC[C@H]1CO1
active: [4] active; positive | [2] active; positive | Test System: AMES SALMONELLA TYPHIMURIUM, Strain/Indicator: TA100, Metabolic Activation: RAT, LIVER, S-9, PCB, Method: PREINCUBATION active; positive

CCCCN(CC)c1c([N+](=O)[O-])cc(C(F)(F)F)cc1[N+](=O)[O-]
inactive: End Point: In vitro Chromosomal aberration, Test System: CHO cells, Metabolic Activation: None inactive; negative | End Point: In vitro Chromosomal aberration, Test System: CHO cells, Metabolic Activation: Rodent, liver, S-9, Aroclor inactive; negative

CC(=O)OCN(CCCCl)N=O
active: Test System: AMES SALMONELLA TYPHIMURIUM, Strain/Indicator: TA92, Metabolic Activation: NONE, Method: STANDARD PLATE active; positive | Test System: AMES SALMONELLA TYPHIMURIUM, Strain/Indicator: TA1535, Metabolic Activation: NONE, Method: STANDARD PLATE active; positive

CC(C)(c1ccc(O)cc1)c1ccc(O)cc1
active: End Point: In vitro micronucleus, Test System: Human lymphoblastoid AHH-1 cells, Metabolic Activation: None active; positive (all doses >10.8 ug/ml)
inactive: End Point: IN VITRO CHROMOSOMAL ABERRATIONS, Test System: CHO CELLS, Metabolic Activation: RAT, LIVER, S-9, AROCLOR 1254 inactive; negative; previous trial yielded positive result at 50 ug/ml but no dose-respons | End Point: In vivo micronucleus, Test System: Bone marrow polychromatic erythrocytes, Species: Mouse, Strain/Sex: Swiss/Male, female, Route: Oral inactive; negative | Test System: AMES SALMONELLA TYPHIMURIUM, Strain/Indicator: TA97A, Metabolic Activation: NONE, Method: STANDARD PLATE inactive; negative | Test System: AMES SALMONELLA TYPHIMURIUM, Strain/Indicator: TA97A, Metabolic Activation: RAT LIVER S-9, PHENOBARBITAL AND BETA-NAPHTHAFLAVONE, Method: STANDARD PLATE inactive; negative | [3] inactive; negative | [1] inactive; negative | Test System: AMES SALMONELLA TYPHIMURIUM, Strain/Indicator: TA98, Metabolic Activation: RAT LIVER S-9, AROCLOR 1254, Method: STANDARD PLATE inactive; negative | Test System: AMES SALMONELLA TYPHIMURIUM, Strain/Indicator: TA98, Metabolic Activation: RAT LIVER S-9, PHENOBARBITAL AND BETA-NAPHTHAFLAVONE, Method: STANDARD PLATE inactive; negative | Test System: AMES SALMONELLA TYPHIMURIUM, Strain/Indicator: TA98, Metabolic Activation: RAT LIVER S-9, PHENOBARBITAL AND BETA-NAPHTHOFLAVONE, Method: PREINCUBATION inactive; negative | Test System: AMES SALMONELLA TYPHIMURIUM, Strain/Indicator: TA98, Metabolic Activation: S-9, Method: PREINCUBATION inactive; negative | [4] inactive; negative | [2] inactive; negative | Test System: AMES SALMONELLA TYPHIMURIUM, Strain/Indicator: TA100, Metabolic Activation: RAT LIVER S-9, AROCLOR 1254, Method: STANDARD PLATE inactive; negative | Test System: AMES SALMONELLA TYPHIMURIUM, Strain/Indicator: TA100, Metabolic Activation: RAT LIVER S-9, PHENOBARBITAL AND BETA-NAPHTHAFLAVONE, Method: STANDARD PLATE inactive; negative | Test System: AMES SALMONELLA TYPHIMURIUM, Strain/Indicator: TA100, Metabolic Activation: RAT LIVER S-9, PHENOBARBITAL AND BETA-NAPHTHOFLAVONE, Method: PREINCUBATION inactive; negative | Test System: AMES SALMONELLA TYPHIMURIUM, Strain/Indicator: TA100, Metabolic Activation: S-9, Method: PREINCUBATION inactive; negative | Test System: AMES SALMONELLA TYPHIMURIUM, Strain/Indicator: TA102, Metabolic Activation: NONE, Method: STANDARD PLATE inactive; negative | Test System: AMES SALMONELLA TYPHIMURIUM, Strain/Indicator: TA102, Metabolic Activation: RAT LIVER S-9, PHENOBARBITAL AND BETA-NAPHTHAFLAVONE, Method: STANDARD PLATE inactive; negative | [5] inactive; negative | Test System: AMES SALMONELLA TYPHIMURIUM, Strain/Indicator: TA1535, Metabolic Activation: RAT LIVER S-9, PHENOBARBITAL AND BETA-NAPHTHOFLAVONE, Method: PREINCUBATION inactive; negative | [6] inactive; negative | Test System: AMES SALMONELLA TYPHIMURIUM, Strain/Indicator: TA1537, Metabolic Activation: RAT LIVER S-9, PHENOBARBITAL AND BETA-NAPHTHOFLAVONE, Method: PREINCUBATION inactive; negative | Test System: CHINESE HAMSTER V-79, Strain/Indicator: V-79 (HPRT)/6-THIOGUANINE, Metabolic Activation: NONE inactive; negative | Test System: E.COLI, Strain/Indicator: WP2UVRA, Metabolic Activation: NONE, Method: PREINCUBATION inactive; negative | Test System: E.COLI, Strain/Indicator: WP2UVRA, Metabolic Activation: RAT LIVER S-9, PHENOBARBITAL AND BETA-NAPHTHOFLAVONE, Method: PREINCUBATION inactive; negative

[Ag]
inactive: End Point: In vivo micronucleus, Test System: Bone marrow polychromatic erythrocytes, Species: Rat, Strain/Sex: Sprague-Dawley/Male and Female, Route: Oral inactive; negative
